Measured values: patent US20230157952A1, “METHOD FOR IMPROVING THE STABILITY OF A PHARMACEUTICAL COMPOSITION COMPRISING A HIGH PENETRATION DRUG, AND THE PHARMACEUTICAL COMPOSITION OBTAINED THEREFROM” (Techfields Inc., priority 2020, published 2023)

Test: Effect of temperature (and pH) on the stability of the solution (purity)
Assay type: physicochemical
Details: 7% solution in water

## CCN(CC)CCOC(=O)COc1nn(Cc2ccccc2)c2ccccc12.Cl
pH 1.0, day 0
  Purity(%) at day 0: 97.5 ± 0.3%
pH 1.0, day 21, 5° C.
  Purity(%) at day 21 (5° C.): 89.9 ± 0.3%
pH 1.0, day 21, 25° C.
  Purity(%) at day 21 (25° C.): 63.5 ± 0.3%
pH 1.0, day 21, 40° C.
  Purity(%) at day 21 (40° C.): 9.1 ± 0.3%
pH 1.0, day 21, 60° C.
  Purity (%) at day 21 (60° C.): 0%
pH 2.0, day 0
  Purity(%) at day 0: 97.7 ± 0.2%
pH 2.0, day 21, 5° C.
  Purity(%) at day 21 (5° C.): 93.0 ± 0.2%
pH 2.0, day 21, 25° C.
  Purity(%) at day 21 (25° C.): 77.8 ± 0.3%
pH 2.0, day 21, 40° C.
  Purity(%) at day 21 (40° C.): 19.6 ± 0.3%
pH 2.0, day 21, 60° C.
  Purity (%) at day 21 (60° C.): 0%
pH 3.0, day 0
  Purity(%) at day 0: 97.8 ± 0.2%
pH 3.0, day 21, 5° C.
  Purity(%) at day 21 (5° C.): 96.8 ± 0.2%
pH 3.0, day 21, 25° C.
  Purity(%) at day 21 (25° C.): 91.3 ± 0.2%
pH 3.0, day 21, 40° C.
  Purity(%) at day 21 (40° C.): 40.4 ± 0.2%
pH 3.0, day 21, 60° C.
  Purity (%) at day 21 (60° C.): 0%
pH 3.7, day 0
  Purity(%) at day 0: 97.9 ± 0.1%
pH 3.7, day 21, 5° C.
  Purity(%) at day 21 (5° C.): 97.5 ± 0.1%
pH 3.7, day 21, 25° C.
  Purity(%) at day 21 (25° C.): 95.6 ± 0.2%
pH 3.7, day 21, 40° C.
  Purity(%) at day 21 (40° C.): 55.6 ± 0.2%
pH 3.7, day 21, 60° C.
  Purity (%) at day 21 (60° C.): 8.5 ± 0.2%
pH 4.0, day 0
  Purity(%) at day 0: 98.1 ± 0.1%
pH 4.0, day 21, 5° C.
  Purity(%) at day 21 (5° C.): 97.6 ± 0.1%
pH 4.0, day 21, 25° C.
  Purity(%) at day 21 (25° C.): 95.7 ± 0.1%
pH 4.0, day 21, 40° C.
  Purity(%) at day 21 (40° C.): 57.2 ± 0.2%
pH 4.0, day 21, 60° C.
  Purity (%) at day 21 (60° C.): 23.2 ± 0.2%
pH 4.3, day 0
  Purity(%) at day 0: 98.1 ± 0.1%
pH 4.3, day 21, 5° C.
  Purity(%) at day 21 (5° C.): 97.7 ± 0.2%
pH 4.3, day 21, 25° C.
  Purity(%) at day 21 (25° C.): 95.5 ± 0.1%
pH 4.3, day 21, 40° C.
  Purity(%) at day 21 (40° C.): 58.8 ± 0.3%
pH 4.3, day 21, 60° C.
  Purity (%) at day 21 (60° C.): 25.8 ± 0.2%
pH 4.6, day 0
  Purity(%) at day 0: 97.9 ± 0.1%
pH 4.6, day 21, 5° C.
  Purity(%) at day 21 (5° C.): 97.6 ± 0.1%
pH 4.6, day 21, 25° C.
  Purity(%) at day 21 (25° C.): 95.1 ± 0.1%
pH 4.6, day 21, 40° C.
  Purity(%) at day 21 (40° C.): 54.7 ± 0.2%
pH 4.6, day 21, 60° C.
  Purity (%) at day 21 (60° C.): 16.5 ± 0.2%
pH 5.0, day 0
  Purity(%) at day 0: 97.8 ± 0.2%
pH 5.0, day 21, 5° C.
  Purity(%) at day 21 (5° C.): 95.9 ± 0.2%
pH 5.0, day 21, 25° C.
  Purity(%) at day 21 (25° C.): 91.8 ± 0.2%
pH 5.0, day 21, 40° C.
  Purity(%) at day 21 (40° C.): 36.1 ± 0.2%
pH 5.0, day 21, 60° C.
  Purity (%) at day 21 (60° C.): 4.2 ± 0.2%
pH 6.0, day 0
  Purity(%) at day 0: 97.6 ± 0.3%
pH 6.0, day 21, 5° C.
  Purity(%) at day 21 (5° C.): 93.7 ± 0.2%
pH 6.0, day 21, 25° C.
  Purity(%) at day 21 (25° C.): 78.9 ± 0.2%
pH 6.0, day 21, 40° C.
  Purity(%) at day 21 (40° C.): 18.5 ± 0.2%
pH 6.0, day 21, 60° C.
  Purity (%) at day 21 (60° C.): 0%
pH 7.0, day 0
  Purity(%) at day 0: 97.5 ± 0.3%
pH 7.0, day 21, 5° C.
  Purity(%) at day 21 (5° C.): 89.3 ± 0.2%
pH 7.0, day 21, 25° C.
  Purity(%) at day 21 (25° C.): 59.7 ± 0.3%
pH 7.0, day 21, 40° C.
  Purity(%) at day 21 (40° C.): 7.1 ± 0.3%
pH 7.0, day 21, 60° C.
  Purity (%) at day 21 (60° C.): 0%
pH 8.0, day 0
  Purity(%) at day 0: 97.4 ± 0.4%
pH 8.0, day 21, 5° C.
  Purity(%) at day 21 (5° C.): 77.5 ± 0.3%
pH 8.0, day 21, 25° C.
  Purity(%) at day 21 (25° C.): 39.8 ± 0.3%
pH 8.0, day 21, 40° C.
  Purity(%) at day 21 (40° C.): 0%
pH 8.0, day 21, 60° C.
  Purity (%) at day 21 (60° C.): 0%
